Assay results as given in PubChem BioAssay (NCI).
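These data come from cells grown in 96-well plates and exposed to compound for 48 hours at five concentrations. GI50 = concentration required for 50% inhibition of growth. TGI is the concentration that stops growth completely.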

Columns and labels:
Test in all cases: DTP human tumour cell line panel, 48 h
RXF 393 renal = system: RXF 393 renal
UACC-62 melanoma = system: UACC-62 melanoma
CCRF-CEM leukemia = system: CCRF-CEM leukemia
TK-10 renal = system: TK-10 renal
SF-295 CNS = system: SF-295 CNS
MALME-3M melanoma = system: MALME-3M melanoma
K-562 leukemia = system: K-562 leukemia
HCT-116 colon = system: HCT-116 colon
PC-3 prostate = system: PC-3 prostate
MCF7 breast = system: MCF7 breast

SMILES	TGI (RXF 393 renal)	TGI (UACC-62 melanoma)	TGI (CCRF-CEM leukemia)	TGI (TK-10 renal)	TGI (SF-295 CNS)	TGI (MALME-3M melanoma)	TGI (K-562 leukemia)	TGI (HCT-116 colon)	GI50 (RXF 393 renal)	GI50 (UACC-62 melanoma)	GI50 (TK-10 renal)	GI50 (PC-3 prostate)	TGI (PC-3 prostate)	GI50 (SF-295 CNS)	GI50 (MCF7 breast)	TGI (MCF7 breast)	GI50 (MALME-3M melanoma)	GI50 (HCT-116 colon)	GI50 (CCRF-CEM leukemia)	GI50 (K-562 leukemia)
Cc1ccc([N+](=O)[O-])cc1NC(=O)c1cccc([N+](=O)[O-])c1O	27.7 µM	38.1 µM	83.7 µM	93.8 µM	63.3 µM	62.7 µM	96.6 µM	–	–	–	–	–	–	–	–	–	–	–	–	–
Fc1ccccc1C1SCc2nc3ccccc3n21 (configuration not stated)	> 100 µM	> 100 µM	> 100 µM	> 100 µM	> 100 µM	> 100 µM	> 100 µM	> 100 µM	–	–	–	–	–	–	–	–	–	–	–	–
Nc1nc(N)c2c(n1)NC(c1ccc(F)cc1)C1CCc3ccccc3C1=N2 (configuration not stated)	20 µM	17.7 µM	–	16.9 µM	6.18 µM	15 µM	–	11.9 µM	5.48 µM	3.76 µM	3.63 µM	2.03 µM	9.31 µM	1.71 µM	2.67 µM	11 µM	2.52 µM	3.04 µM	–	–
O=C(c1ccccc1)C(Br)C(Br)c1cccc([N+](=O)[O-])c1 (configuration not stated)	2.94 µM	3.56 µM	2.78 µM	8.31 µM	24 µM	3.84 µM	–	2.08 µM	1.59 µM	1.79 µM	2.81 µM	2.26 µM	6.84 µM	10.8 µM	1.28 µM	3.63 µM	2 µM	0.864 µM	0.574 µM	–
NCCN.NCCN.O=C([O-])CCl.O=C([O-])CCl.[Co+3].[O-][Cl+3]([O-])([O-])[O-]	–	> 100 µM	> 100 µM	> 100 µM	> 100 µM	> 100 µM	> 100 µM	> 100 µM	–	> 100 µM	> 100 µM	–	–	> 100 µM	–	–	> 100 µM	> 100 µM	> 100 µM	> 100 µM
O=S(=O)(c1cccc2c(Cl)cccc12)N1CCCNCC1	22.4 µM	26.5 µM	28.4 µM	25.8 µM	34.5 µM	–	25.3 µM	21.9 µM	2.88 µM	13.6 µM	13 µM	13.8 µM	26.8 µM	17.7 µM	24.5 µM	50.8 µM	–	10.3 µM	15.1 µM	12.7 µM
COc1ccc(S(=O)(=O)N/N=C/c2cc(I)cc([N+](=O)[O-])c2O)cc1OC	–	59.7 µM	> 100 µM	> 100 µM	> 100 µM	83.9 µM	> 100 µM	–	–	–	–	–	–	–	–	–	–	–	–	–
COc1ccc(CC(=O)NCCc2ccc(OC)c(OC)c2)cc1Br	> 100 µM	> 100 µM	> 100 µM	> 100 µM	> 100 µM	> 100 µM	> 100 µM	–	–	–	–	–	–	–	–	–	–	–	–	–
Cc1cc(NS(=O)(=O)c2ccc(NC(=O)c3ccc(Cl)c4c(Nc5ccc(S(=O)(=O)N=C(N)N)cc5)c5ccccc5nc34)cc2)no1	48.6 µM	> 100 µM	67.2 µM	> 100 µM	> 100 µM	> 100 µM	> 100 µM	> 100 µM	–	–	–	–	–	–	–	–	–	–	–	–
CN1CC[C@]2(C)c3cc(O)ccc3CC3CCCC1C32C (some centres not stated)	> 100 µM	> 100 µM	> 100 µM	> 100 µM	> 100 µM	> 100 µM	> 100 µM	> 100 µM	–	–	–	–	–	–	–	–	–	–	–	–
Oc1ccccc1CNCC12CC3CC(CC(C3)C1)C2	40.3 µM	38.7 µM	–	> 100 µM	42.2 µM	48.8 µM	> 100 µM	> 100 µM	16.7 µM	17.8 µM	31.2 µM	26 µM	> 100 µM	19.3 µM	16.8 µM	34.7 µM	21.2 µM	22 µM	–	5.39 µM
Nc1c([N+](=O)[O-])cc2c3c(cccc13)CC2	74.2 µM	> 100 µM	> 100 µM	> 100 µM	> 100 µM	–	> 100 µM	> 100 µM	–	–	–	–	> 100 µM	–	–	–	–	–	–	–
COc1cc(C(O)C(=O)c2nc3ccc([N+](=O)[O-])cc3[nH]c2=O)ccc1O (configuration not stated)	–	> 100 µM	> 100 µM	> 100 µM	> 100 µM	> 100 µM	> 100 µM	> 100 µM	–	–	–	–	–	–	–	–	–	–	–	–
CNC(=O)CC1NC(=O)c2csc(n2)-c2ccc(-c3nc(C4=NC(C(=O)N5CCCC5C(N)=O)CO4)cs3)nc2-c2csc(n2)-c2csc(n2)C(C(C)C)NC(=O)CNC(=O)c2csc(n2)C(C(C)C)NC(=O)c2nc1sc2C (configuration not stated)	> 25 µM	> 25 µM	> 25 µM	–	> 25 µM	> 25 µM	> 25 µM	> 25 µM	> 25 µM	> 25 µM	> 25 µM	–	–	> 25 µM	< 0.001 µM	–	–	> 25 µM	> 25 µM	> 25 µM
CC(C)(CN1CCCCC1)C(=O)/C=C/c1ccc(Cl)cc1	13.8 µM	20.2 µM	7 µM	29.1 µM	11.3 µM	18.9 µM	12.3 µM	13 µM	–	–	–	–	–	–	–	–	–	–	–	–
Cc1c(C(=O)CC(=O)C(=O)Nc2ccc(Cl)cc2)[n+](=O)c2ccccc2n1[O-]	–	> 100 µM	> 100 µM	> 100 µM	> 100 µM	> 100 µM	> 100 µM	> 100 µM	–	–	–	–	–	–	–	–	–	–	–	–
C/C=C1/CCC2c3[nH]c4ccccc4c3CCN2C1 (configuration not stated)	> 100 µM	> 100 µM	> 100 µM	> 100 µM	> 100 µM	67.7 µM	> 100 µM	> 100 µM	–	–	–	–	–	–	–	–	–	–	–	–
C=C1C(=O)OC2C=C(CCC(C)=O)C(C)C(OC(C)=O)CC12 (configuration not stated)	5.42 µM	27.4 µM	12.4 µM	24.4 µM	40.2 µM	25.2 µM	44 µM	21.2 µM	–	–	–	–	–	–	–	–	–	–	–	–
Cc1cc2[nH]c(=O)c3c4ccccc4cn3c2cc1C	27.4 µM	31.9 µM	31.2 µM	34.2 µM	28.5 µM	37.5 µM	–	3.13 µM	12 µM	16.7 µM	19.7 µM	12 µM	25.4 µM	12.2 µM	11.8 µM	> 100 µM	22.2 µM	1.58 µM	9.92 µM	–
